pEC50: −log10 of the molar value.
Legend:
Assay type in all cases: cell-based
TAS2R4 = molecular target: T1, TAS2R4 (Homo sapiens, UniProt Q9NYW5); assay: Calcium fluorescence functional assay, TAS2R4 cell line; details: for TAS2R4 bitter taste receptor activity (changes in intracellular calcium): 20 mM tastant, cell line expressing human TAS2R4 and mouse Gα15
T1 construct: expressed in transfected cells
T1 sequence (Q9NYW5 1-299): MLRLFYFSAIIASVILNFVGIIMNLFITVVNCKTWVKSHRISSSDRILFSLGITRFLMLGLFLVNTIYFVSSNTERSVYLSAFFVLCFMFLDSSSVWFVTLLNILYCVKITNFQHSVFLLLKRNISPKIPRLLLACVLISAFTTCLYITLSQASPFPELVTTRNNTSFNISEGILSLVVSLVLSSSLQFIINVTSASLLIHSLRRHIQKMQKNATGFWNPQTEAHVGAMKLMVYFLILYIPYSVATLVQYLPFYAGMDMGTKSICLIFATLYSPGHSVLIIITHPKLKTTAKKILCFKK
Experimental: (§1) Accordingly, each cell line of the panel expressed a human bitter taste receptor and mouse Gα15 signaling protein.
(§2) Probenecid was not included in the load solution.
(§3) After dye loading, cell plates were placed in a fluorescent plate reader (e.g., FDSS6000 (Hamamatsu, Japan)) and receptor stimulation was measured by adding 50 ul of 3× concentrated ligand/agonist stock. Fluorescence was monitored continuously for 10 s before agonist addition and for 100-250 s after stimulation with agonist.
(§4) Receptor Activation is defined as follows: % Activation=[((Maximum signal fluorescence−Minimum signal fluorescence)−(Maximum control fluorescence−Minimum control fluorescence))/(Maximum buffer fluorescence−Minimum buffer fluorescence)]*100 Functional Response=[(Maximum signal fluorescence−Minimum signal fluorescence)−(Maximum control fluorescence−Minimum control fluorescence)] • Signal Fluorescence: refers to the change in fluorescence seen with addition of ligand • Control fluorescence: refers to the change in fluorescence seen with addition of buffer (negative control) • Calcium signals from ligand and control were normalized to the basal fluorescence of the cells prior to the stimulation.
(§5) A concentration analysis was performed and EC50 values were calculated by nonlinear regression using the formula: Y=Bottom+(Top-Bottom)/(1+10^((Log EC50-X)*Hill Slope)), X=log of dose or concentration, Y=Response (increasing as X increases), Top=maximum signal, Bottom=minimum signal.

TAS2R8 = molecular target: T2, TAS2R8 (Homo sapiens, UniProt Q9NYW2); assay: Calcium fluorescence functional assay, TAS2R8 cell line; details: 20 mM tastant; cell line expressing human TAS2R8 and mouse Gα15
T2 construct: expressed in transfected cells
T2 sequence (Q9NYW2 1-309): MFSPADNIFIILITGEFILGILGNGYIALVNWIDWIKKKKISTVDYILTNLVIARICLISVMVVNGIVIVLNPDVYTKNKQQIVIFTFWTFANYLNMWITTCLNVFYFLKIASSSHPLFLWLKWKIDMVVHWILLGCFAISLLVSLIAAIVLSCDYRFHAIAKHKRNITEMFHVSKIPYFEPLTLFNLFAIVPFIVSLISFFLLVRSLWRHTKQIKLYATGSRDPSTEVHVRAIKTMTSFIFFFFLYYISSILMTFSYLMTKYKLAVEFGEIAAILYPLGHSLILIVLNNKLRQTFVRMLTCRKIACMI
Experimental: as §1, §2, §3, §4, §5

TAS2R10 = molecular target: T3, TAS2R10 (Homo sapiens, UniProt Q9NYW0); assay: Calcium fluorescence functional assay, TAS2R10 cell line; details: 20 mM tastant; cell line expressing human TAS2R10 and mouse Gα15
T3 construct: expressed in transfected cells
T3 sequence (Q9NYW0 1-307): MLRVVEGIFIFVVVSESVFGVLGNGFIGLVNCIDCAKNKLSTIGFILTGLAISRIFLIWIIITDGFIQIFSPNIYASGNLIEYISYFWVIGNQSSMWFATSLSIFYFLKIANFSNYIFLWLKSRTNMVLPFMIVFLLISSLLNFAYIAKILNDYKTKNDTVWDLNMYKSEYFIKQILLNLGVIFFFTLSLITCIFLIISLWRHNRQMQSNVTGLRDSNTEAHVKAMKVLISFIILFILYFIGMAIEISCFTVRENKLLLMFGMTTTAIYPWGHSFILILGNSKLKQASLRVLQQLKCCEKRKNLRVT
Experimental: as §1, §2, §3, §4, §5

TAS2R16 = molecular target: T4, TAS2R16 (Homo sapiens, UniProt Q9NYV7); assay: Calcium fluorescence functional assay, TAS2R16 cell line; details: 20 mM tastant; cell line expressing human TAS2R16 and mouse Gα15
T4 construct: expressed in transfected cells
T4 sequence (Q9NYV7 1-291): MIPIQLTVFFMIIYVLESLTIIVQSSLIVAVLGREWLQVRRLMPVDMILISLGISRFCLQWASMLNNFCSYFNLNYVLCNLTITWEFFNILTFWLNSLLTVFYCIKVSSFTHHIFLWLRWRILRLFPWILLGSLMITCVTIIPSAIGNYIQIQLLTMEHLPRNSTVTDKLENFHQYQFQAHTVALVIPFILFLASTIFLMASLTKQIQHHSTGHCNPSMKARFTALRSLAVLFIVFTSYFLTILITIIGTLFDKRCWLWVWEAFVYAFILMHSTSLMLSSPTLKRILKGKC
Experimental: as §1, §2, §3, §4, §5

TAS2R40 = molecular target: T5, TAS2R40 (Homo sapiens, UniProt P59535); assay: Calcium fluorescence functional assay, TAS2R40 cell line; details: 20 mM tastant; cell line expressing human TAS2R40 and mouse Gα15
T5 construct: expressed in transfected cells
T5 sequence (P59535 whole entry): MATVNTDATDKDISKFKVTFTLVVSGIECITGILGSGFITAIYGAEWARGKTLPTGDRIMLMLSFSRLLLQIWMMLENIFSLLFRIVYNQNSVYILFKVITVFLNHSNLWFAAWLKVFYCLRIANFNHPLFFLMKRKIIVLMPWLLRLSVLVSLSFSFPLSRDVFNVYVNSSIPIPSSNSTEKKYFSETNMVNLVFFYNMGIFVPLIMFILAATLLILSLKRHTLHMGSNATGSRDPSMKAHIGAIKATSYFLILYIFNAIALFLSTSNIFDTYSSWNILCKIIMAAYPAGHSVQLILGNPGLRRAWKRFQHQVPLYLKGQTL
Experimental: as §1, §2, §3, §4, §5

TAS2R43 = molecular target: T6, TAS2R43 (Homo sapiens, UniProt P59537); assay: Calcium fluorescence functional assay, TAS2R43 cell line; details: 20 mM tastant; cell line expressing human TAS2R43 and mouse Gα15
T6 construct: expressed in transfected cells
T6 sequence (P59537 1-309): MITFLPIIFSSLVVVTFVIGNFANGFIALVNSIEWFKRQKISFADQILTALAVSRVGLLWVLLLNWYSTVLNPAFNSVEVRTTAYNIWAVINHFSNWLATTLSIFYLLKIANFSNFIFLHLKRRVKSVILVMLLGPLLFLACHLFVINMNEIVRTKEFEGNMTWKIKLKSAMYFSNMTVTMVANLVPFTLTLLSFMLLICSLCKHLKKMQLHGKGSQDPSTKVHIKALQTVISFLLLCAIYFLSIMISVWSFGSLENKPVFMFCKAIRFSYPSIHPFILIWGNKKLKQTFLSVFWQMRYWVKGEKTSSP
Experimental: as §1, §2, §3, §4, §5

TAS2R45 = molecular target: T7, TAS2R45 (Homo sapiens, UniProt P59539); assay: Calcium fluorescence functional assay, TAS2R45 cell line; details: 20 mM tastant; cell line expressing human TAS2R45 and mouse Gα15
T7 construct: expressed in transfected cells
T7 sequence (P59539 1-299): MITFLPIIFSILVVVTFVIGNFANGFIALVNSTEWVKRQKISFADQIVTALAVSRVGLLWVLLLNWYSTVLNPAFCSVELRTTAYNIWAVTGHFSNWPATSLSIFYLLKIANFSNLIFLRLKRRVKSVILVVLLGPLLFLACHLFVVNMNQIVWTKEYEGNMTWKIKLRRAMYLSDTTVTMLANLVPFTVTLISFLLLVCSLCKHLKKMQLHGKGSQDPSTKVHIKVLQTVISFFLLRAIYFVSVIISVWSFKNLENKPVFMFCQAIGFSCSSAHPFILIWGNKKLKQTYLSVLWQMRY
Experimental: as §1, §2, §3, §4, §5

SMILES | TAS2R4 bitter taste receptor activity (changes in intracellular calcium) (TAS2R4) | TAS2R8 bitter taste receptor activity (changes in intracellular calcium) (TAS2R8) | TAS2R10 bitter taste receptor activity (changes in intracellular calcium) (TAS2R10) | TAS2R16 bitter taste receptor activity (changes in intracellular calcium) (TAS2R16) | TAS2R40 bitter taste receptor activity (changes in intracellular calcium) (TAS2R40) | TAS2R43 bitter taste receptor activity (changes in intracellular calcium) (TAS2R43) | TAS2R45 bitter taste receptor activity (changes in intracellular calcium) (TAS2R45) | pEC50 (TAS2R4; increasing concentrations of KCl, TAS2R4 cell line (FIG. 3), read-out: EC50 value, activation of TAS2R4)
CC1=CC(=O)NS(=O)(=O)O1 [Acesulfame K] | induced | did not induce | did not induce | induced | did not induce | did not induce | did not induce | –
[Cl-].[K+] [KCl, potassium chloride] | induced | did not induce | did not induce | did not induce | did not induce | did not induce | did not induce | 1.82 to 2.30
CC(O)C(=O)[O-].[K+] (stereo not shown) [Potassium lactate, potassium lactate] | induced | did not induce | did not induce | did not induce | did not induce | did not induce | did not induce | –

From US9347934B2, “Assays for identifying compounds that modulate bitter taste” (CHROMOCELL CORPORATION, priority 2011, dated 2016)
